Laboratory results reported in ChEMBL document CHEMBL3352025, “Evaluation of the neuroprotective activity of stansin 6, a resin glycoside from Ipomoea stans” (Bioorg Med Chem Lett, 2014).
The source made the active and inactive calls. No cut-off for these calls is given here.

Experiments:
Rattus norvegicus [1] = assay: Anticonvulsant activity in rat assessed as protection against kainic acid-induced convulsions at 10 mg/kg, ip; format: functional, organism-based; design: dose 10 mg/kg
Rattus norvegicus [2] = assay: Anticonvulsant activity in rat assessed as protection against kainic acid-induced seizures in denate gyrus at 10 mg/kg, ip; format: functional, organism-based; design: dose 10 mg/kg
Rattus norvegicus [3] = assay: Toxicity in rat assessed as hippocampal damage at 10 to 80 mg/kg, ip; format: organism-based, Hippocampus; design: dose 10-80 mg/kg, route intraperitoneal; settings: in vivo
Rattus norvegicus [4] = assay: Anticonvulsant activity in rat assessed as protection against kainic acid-induced death at 10 mg/kg, ip; format: functional, organism-based; design: dose 10 mg/kg
Rattus norvegicus [5] = assay: Toxicity in rat assessed as convulsions at 10 to 80 mg/kg, ip; format: organism-based; design: dose 10-80 mg/kg, route intraperitoneal; settings: in vivo
Rattus norvegicus [6] = assay: Neuroprotective activity in kainic acid-induced rat assessed as decrease in hippocampal neuronal loss at 10 mg/kg, ip; format: functional, organism-based; design: dose 10 mg/kg
Rattus norvegicus [7] = assay: Reduction in IL-1beta in kainic acid-induced rat brain at 10 mg/kg, ip; format: functional, organism-based; design: dose 10 mg/kg
Rattus norvegicus [8] = assay: Reduction in degeneration pattern in kainic acid-induced rat brain inCA3 region at 10 mg/kg, ip by GFAP staining; format: functional, organism-based; design: dose 10 mg/kg
Rattus norvegicus [9] = assay: Toxicity in rat assessed as seizures at 10 to 80 mg/kg, ip; format: organism-based; design: dose 10-80 mg/kg, route intraperitoneal; settings: in vivo
Rattus norvegicus [10] = assay: Decrease in astrocyte reactivity in kainic acid-induced rat brain inCA3 region at 10 mg/kg, ip by GFAP staining; format: functional, organism-based; design: dose 10 mg/kg
Rattus norvegicus [11] = assay: Reduction in TNFalpha in kainic acid-induced rat brain at 10 mg/kg, ip; format: functional, organism-based; design: dose 10 mg/kg

## CCCCC[C@H]1CCCCCCCCCC(=O)O[C@@H]2[C@@H](O[C@@H]3O[C@H](C)[C@@H](OC(=O)[C@@H](C)CC)[C@H](O)[C@H]3O)[C@H](C)O[C@@H](O[C@H]3[C@H](O[C@H]4[C@H](O1)O[C@H](C)[C@@H](O)[C@@H]4O)O[C@H](COC(=O)[C@H](C)[C@@H](C)O)[C@@H](O)[C@@H]3O)[C@@H]2OC(=O)[C@@H](C)CC [ORIZABIN XX]
Rattus norvegicus [1]
  inhibition: Active
Rattus norvegicus [2]
  Activity: Active
Rattus norvegicus [3]
  Activity: Non-toxic
Rattus norvegicus [4]
  Activity: Active
Rattus norvegicus [5]
  Activity: Non-toxic
Rattus norvegicus [6]
  Activity: Active
Rattus norvegicus [7]
  Activity: Active
Rattus norvegicus [8]
  Activity: Active
Rattus norvegicus [9]
  Activity: Non-toxic
Rattus norvegicus [10]
  Activity: Active
Rattus norvegicus [11]
  Activity: Active
